# US10168342B2, “Lipid probes and uses thereof” (THE SCRIPPS RESEARCH INSTITUTE, priority 2015, dated 2019)
# Read-outs that look alike come from different tables or passages of the source.
# Key:
# [1] = biological target: T1, AEA-DA lipid probe targets in Neuro2a cells (Mus musculus, UniProt Q8CFE6)
# T1 sequence (Q8CFE6 1-504): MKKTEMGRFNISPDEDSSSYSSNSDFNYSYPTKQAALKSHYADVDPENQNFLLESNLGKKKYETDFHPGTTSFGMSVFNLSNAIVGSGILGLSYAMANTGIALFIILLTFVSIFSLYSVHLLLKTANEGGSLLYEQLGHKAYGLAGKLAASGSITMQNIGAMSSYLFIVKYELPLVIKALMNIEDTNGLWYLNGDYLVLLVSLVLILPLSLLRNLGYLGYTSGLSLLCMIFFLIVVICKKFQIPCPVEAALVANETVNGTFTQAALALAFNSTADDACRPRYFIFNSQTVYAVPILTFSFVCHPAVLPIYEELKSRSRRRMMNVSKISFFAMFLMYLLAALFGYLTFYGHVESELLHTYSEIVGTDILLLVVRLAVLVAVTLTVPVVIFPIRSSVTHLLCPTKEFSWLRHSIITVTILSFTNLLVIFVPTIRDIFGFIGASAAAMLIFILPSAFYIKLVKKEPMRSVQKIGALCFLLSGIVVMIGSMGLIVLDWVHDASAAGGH
# [2] = biological target: T2, AEA-DA lipid probe targets in Neuro2a cells (Mus musculus, UniProt Q07646)
# T2 sequence (Q07646 1-335): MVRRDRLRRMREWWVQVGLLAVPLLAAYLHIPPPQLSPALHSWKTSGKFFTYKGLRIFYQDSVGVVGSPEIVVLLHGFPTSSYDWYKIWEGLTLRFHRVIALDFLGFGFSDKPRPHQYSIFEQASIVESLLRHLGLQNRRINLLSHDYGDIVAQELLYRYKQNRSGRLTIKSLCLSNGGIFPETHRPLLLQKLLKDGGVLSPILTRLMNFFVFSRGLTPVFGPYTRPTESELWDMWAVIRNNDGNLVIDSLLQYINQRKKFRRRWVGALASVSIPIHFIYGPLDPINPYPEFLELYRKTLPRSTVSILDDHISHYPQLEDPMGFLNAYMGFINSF
# [3] = biological target: AEA-DA lipid probe targets in Neuro2a cells (Mus musculus, UniProt Q9Z2I0)
# [4] = biological target: AEA-DA lipid probe targets in Neuro2a cells (Mus musculus, UniProt Q8VDN2)
# [5] = biological target: T3, AEA-DA lipid probe targets in Neuro2a cells (Mus musculus, UniProt Q0VGU4)
# T3 sequence (Q0VGU4 24-617): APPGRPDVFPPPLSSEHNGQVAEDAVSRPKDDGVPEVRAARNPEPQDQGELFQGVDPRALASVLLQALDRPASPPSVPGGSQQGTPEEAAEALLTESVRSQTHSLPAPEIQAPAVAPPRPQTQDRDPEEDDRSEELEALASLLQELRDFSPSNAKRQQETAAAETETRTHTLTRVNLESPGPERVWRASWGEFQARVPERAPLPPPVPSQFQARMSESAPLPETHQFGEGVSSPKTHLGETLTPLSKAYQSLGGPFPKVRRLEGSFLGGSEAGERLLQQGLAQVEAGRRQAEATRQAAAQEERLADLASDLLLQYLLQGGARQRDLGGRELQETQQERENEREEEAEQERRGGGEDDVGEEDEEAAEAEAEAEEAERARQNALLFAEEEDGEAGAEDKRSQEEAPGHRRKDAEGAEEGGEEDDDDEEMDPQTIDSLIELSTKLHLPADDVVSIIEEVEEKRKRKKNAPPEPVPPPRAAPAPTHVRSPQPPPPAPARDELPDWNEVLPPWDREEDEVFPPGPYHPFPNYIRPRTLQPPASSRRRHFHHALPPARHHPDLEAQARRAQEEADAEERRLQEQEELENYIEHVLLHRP
# [6] = biological target: T4, AEA-DA lipid probe targets in Neuro2a cells (Mus musculus, UniProt Q8CHK3)
# T4 sequence (Q8CHK3 1-473): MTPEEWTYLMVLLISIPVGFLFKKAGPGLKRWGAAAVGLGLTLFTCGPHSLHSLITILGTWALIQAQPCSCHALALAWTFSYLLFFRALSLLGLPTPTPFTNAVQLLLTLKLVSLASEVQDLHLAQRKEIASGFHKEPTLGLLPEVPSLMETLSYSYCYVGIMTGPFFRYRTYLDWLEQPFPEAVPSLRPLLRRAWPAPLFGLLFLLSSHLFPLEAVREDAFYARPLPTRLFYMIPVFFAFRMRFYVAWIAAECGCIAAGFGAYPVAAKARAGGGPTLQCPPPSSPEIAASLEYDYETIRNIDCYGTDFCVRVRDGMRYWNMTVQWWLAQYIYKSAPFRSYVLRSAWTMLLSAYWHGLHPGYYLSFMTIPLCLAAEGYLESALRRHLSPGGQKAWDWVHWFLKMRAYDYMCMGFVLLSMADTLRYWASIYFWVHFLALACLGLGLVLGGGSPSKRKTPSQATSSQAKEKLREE
# [7] = biological target: AEA-DA lipid probe targets in Neuro2a cells (Mus musculus, UniProt P97300); settings: competitor 25 μM; for SILAC ratio, NPTN (Q9Y639): Neuro2a cells, AEA-DA probe
# AEA-DA lipid probe targets in Neuro2a cells (Mus musculus, UniProt P97300), sequence (P97300 29-397): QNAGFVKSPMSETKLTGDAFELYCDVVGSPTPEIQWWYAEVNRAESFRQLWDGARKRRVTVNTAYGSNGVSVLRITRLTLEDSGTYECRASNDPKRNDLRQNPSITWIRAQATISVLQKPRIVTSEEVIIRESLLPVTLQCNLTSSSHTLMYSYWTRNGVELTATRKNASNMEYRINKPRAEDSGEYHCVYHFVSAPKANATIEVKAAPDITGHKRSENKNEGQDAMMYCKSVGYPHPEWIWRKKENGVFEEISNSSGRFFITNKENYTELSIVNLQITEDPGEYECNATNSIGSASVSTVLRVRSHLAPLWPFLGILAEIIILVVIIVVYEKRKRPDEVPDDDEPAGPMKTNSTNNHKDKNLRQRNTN
# AEA-DA lipid probe targets in Neuro2a cells (Mus musculus, UniProt Q9Z2I0), sequence (Q9Z2I0 115-738): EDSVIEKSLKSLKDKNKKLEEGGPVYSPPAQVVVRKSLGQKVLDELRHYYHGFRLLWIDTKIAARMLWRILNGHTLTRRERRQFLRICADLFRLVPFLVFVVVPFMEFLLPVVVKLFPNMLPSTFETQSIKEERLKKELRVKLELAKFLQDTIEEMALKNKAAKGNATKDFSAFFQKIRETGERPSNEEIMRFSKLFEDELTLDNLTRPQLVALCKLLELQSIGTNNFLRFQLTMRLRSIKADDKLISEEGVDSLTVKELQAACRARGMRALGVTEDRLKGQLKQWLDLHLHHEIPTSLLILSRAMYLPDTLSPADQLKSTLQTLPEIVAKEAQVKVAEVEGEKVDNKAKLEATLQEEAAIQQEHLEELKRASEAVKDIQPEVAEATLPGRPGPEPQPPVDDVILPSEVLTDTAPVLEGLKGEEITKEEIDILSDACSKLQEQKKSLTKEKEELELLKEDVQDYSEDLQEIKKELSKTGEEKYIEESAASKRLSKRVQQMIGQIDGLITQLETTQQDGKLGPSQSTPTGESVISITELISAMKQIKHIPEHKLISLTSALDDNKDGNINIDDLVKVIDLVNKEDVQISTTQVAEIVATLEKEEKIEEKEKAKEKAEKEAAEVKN
SMILES,"SILAC ratio, Mboat7 ([6]; competitor 25 μM)",SILAC ratio Slc38a2 ([1]; competitor 25 μM),"SILAC ratio, NPTN (Q9Y639) [7]","SILAC ratio, Nptn [7]",SILAC ratio Mest ([2]; competitor 25 μM),SILAC ratio Letm1 ([3]; competitor 25 μM),SILAC ratio Atp1a1 ([4]; competitor 25 μM),"SILAC ratio, Vgf ([5]; competitor 25 μM)",other results
"CCCCC/C=C\C/C=C\C/C=C\C/C=C\CCCC(=O)NCCO [AEA, anandamide, reference compound]",,,,,,,,,"SILAC ratio Slc38a2 ([1]; competitor 200 μM): 1.5; SILAC ratio Mest ([2]; competitor 200 μM): 1.5; SILAC ratio Letm1 ([3]; competitor 200 μM): 0.6; SILAC ratio Atp1a1 ([4]; competitor 200 μM): 1.4; SILAC ratio, Vgf ([5]; competitor 200 μM): 1.0"
"O=C(/C=C/c1cccnc1)NCCCCC1CCN(C(=O)c2ccccc2)CC1 [FK-866, reference compound]",1.1,1.0,1.2,1.2,1.2,1.5,1.2,1.1,
"CN1CCN(C(=O)c2c(-c3ccccc3)c3cc([N+](=O)[O-])ccc3n2C)CC1 [KML110, (1-Methyl-5-nitro-3-phenyl-1H-indol-2-yl)(4-methylpiperazin-1-yl)methanone]",1.7,1.2,,,1.3,1.1,1.2,1.4,
"CN1CCN(C(=O)c2[nH]c3ccc([N+](=O)[O-])cc3c2-c2ccccc2)CC1 [MJN228, (4-Methylpiperazin-1-yl)(5-nitro-3-phenyl-1H-indol-2-yl)methanone]",1.6,1.3,1.9,1.9,1.4,1.5,1.4,1.3,"SILAC ratio, Mboat7 ([6]; competitor 10 μM): 1.2; SILAC ratio, Mboat7 ([6]; competitor 50 μM): 1.9; SILAC ratio, Mboat7 ([6]; competitor 100 μM): 2.3; SILAC ratio Slc38a2 ([1]; competitor 10 μM): 1.2; SILAC ratio Slc38a2 ([1]; competitor 100 μM): 1.2; SILAC ratio Mest ([2]; competitor 10 μM): 1.2; SILAC ratio Mest ([2]; competitor 50 μM): 1.3; SILAC ratio Mest ([2]; competitor 100 μM): 1.6; SILAC ratio Letm1 ([3]; competitor 10 μM): 1.3; SILAC ratio Letm1 ([3]; competitor 50 μM): 1.2; SILAC ratio Letm1 ([3]; competitor 100 μM): 1.1; SILAC ratio Atp1a1 ([4]; competitor 10 μM): 1.4; SILAC ratio Atp1a1 ([4]; competitor 50 μM): 1.1; SILAC ratio Atp1a1 ([4]; competitor 100 μM): 1.2; SILAC ratio, Vgf ([5]; competitor 10 μM): 1.3; SILAC ratio, Vgf ([5]; competitor 50 μM): 1.1; SILAC ratio, Vgf ([5]; competitor 100 μM): 1.0"
"C=CCN(C)CCCCCCOc1ccc(C(=O)c2ccc(Br)cc2)c(F)c1 [Ro 48-8071, reference compound]",1.1,0.7,2.0,2.0,1.2,1.3,1.0,0.9,
